Data from PubChem BioAssay (NCI).
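A five-concentration, 48-hour dose response in 96-well plates underlies each endpoint, interpolated linearly between surrounding concentrations. TGI: concentration producing complete growth inhibition.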

Legend:
Assay in all cases: DTP human tumour cell line panel, 48 h
A549 NSCLC = system: A549 NSCLC
ACHN renal = system: ACHN renal
CAKI-1 renal = system: CAKI-1 renal
HT29 colon = system: HT29 colon
NCI-H522 lung = system: NCI-H522 lung
OVCAR-4 ovarian = system: OVCAR-4 ovarian
OVCAR-5 ovarian = system: OVCAR-5 ovarian
SK-MEL-5 melanoma = system: SK-MEL-5 melanoma
SW-620 colon = system: SW-620 colon
UO-31 renal = system: UO-31 renal

| Structure (SMILES) | TGI (A549 NSCLC) [µM] | TGI (ACHN renal) [µM] | TGI (CAKI-1 renal) [µM] | TGI (HT29 colon) [µM] | TGI (NCI-H522 lung) [µM] | TGI (OVCAR-4 ovarian) [µM] | TGI (OVCAR-5 ovarian) [µM] | TGI (SK-MEL-5 melanoma) [µM] | TGI (SW-620 colon) [µM] | TGI (UO-31 renal) [µM] |
| --- | --- | --- | --- | --- | --- | --- | --- | --- | --- | --- |
| Cc1ccc2nc(N)[nH]c(=O)c2c1Sc1ccncc1 | > 100 | > 100 | > 100 | > 100 | > 100 | > 100 | > 100 | > 100 | > 100 | > 100 |
| N#C/C(=C\c1ccc(O)c(O)c1)c1c(C#N)c(N)nn1-c1ccccc1 | 39.3 | 26.9 | 9.05 | 65.8 | 13.2 | 38.7 | > 100 | 34.4 | > 100 | 62 |
| COc1ccccc1N1CCN(CCCCNC(=O)c2ccc([N+](=O)[O-])o2)CC1 | 19.5 | 25.2 | 40.5 | 9.92 | 7.26 | 28.9 | 33.1 | 18.7 | > 66 | 23.2 |
| CCOC(=O)c1c(N2CCCC2)[nH]c(=O)c(C(c2c(O)c(C(=O)OCC)c(N3CCCC3)[nH]c2=O)C(C)C)c1O | > 100 | > 100 | > 100 | > 100 | > 100 | > 100 | > 100 | > 100 | > 100 | > 100 |
| Oc1cc(O)c2c(c1)O[C@H](c1ccc(O)c(O)c1)[C@@H](O)C2 | > 100 | > 100 | > 100 | > 100 | > 100 | > 100 | > 100 | > 100 | > 100 | > 100 |
| Cc1cccc2c(N)c3cccc(C(=O)NCC[N+](C)(C)Cc4ccc([N+](=O)[O-])n4C)c3nc12 | > 52.2 | 56.1 | > 51.2 | 59 | 35.8 | > 74.7 | > 70.8 | 59 | > 82.2 | 74.7 |
| O=C(Nc1ccccc1)c1cc2ccccc2c(N=Nc2cccc([N+](=O)[O-])c2)c1O | > 100 | > 100 | > 100 | > 100 | > 100 | > 100 | > 100 | > 100 | > 100 | > 100 |
| COc1c(C)c(C/C=C(\C)CC/C=C(\C)CC/C=C(\C)CCC=C(C)C)c(OC)c(OC)c1OC | > 100 | > 100 | > 100 | > 100 | > 100 | > 100 | > 100 | > 100 | > 100 | > 100 |
| O=[N+]([O-])c1cc(C2(N3CCCCC3)CCCCC2)sc1Br | 33.7 | 11.5 | 15.6 | 15.4 | 6.78 | 27.1 | 38.2 | 18.7 | 21.3 | 24.6 |
| Cc1ccc(Nc2c3c(c(C#N)c4nc5ccccc5n24)CCCC3)cc1 | > 100 | > 100 | > 100 | 37.2 | 82.4 | > 100 | 95 | 23.4 | 61 | 65.6 |
| O=S(=O)(O)c1ccc2c(N=Nc3cccc4ccccc34)c(O)ccc2c1 | > 100 | > 100 | > 100 | > 100 | > 100 | > 100 | > 100 | > 100 | > 100 | > 100 |
| CC(=O)Nc1ccc(-c2nnc(SCC(=O)Nc3cccc(C)c3)o2)cc1 | 68.6 | 22.5 | 30.4 | 25.4 | 16.7 | 29.8 | 26.7 | 23.1 | 25.4 | 26.3 |
| O=C(O)c1cc(N=Nc2ccc([N+](=O)[O-])cc2)ccc1O | > 100 | > 100 | > 100 | > 100 | > 100 | 80.4 | > 100 | > 100 | > 100 | 67.6 |
| CC(C)C[S+]1C2=C([O-])CC(C)(C)CC2=Nc2ccccc21 (stereo not given) | > 100 | > 100 | > 100 | > 100 | > 100 | > 100 | > 100 | > 100 | > 100 | > 100 |
| CN(C(=O)[C@H](NC(=O)OCc1ccccc1)c1ccccc1)C1CCCCC1N1CCCC1 (stereo not given in full) | > 100 | > 100 | > 100 | > 100 | > 100 | > 100 | > 100 | 41.2 | > 100 | > 100 |
| COc1ccc2[nH]c3cc4c(=O)c5cc(OC)ccc5[nH]c4cc3c(=O)c2c1 | > 100 | > 100 | > 100 | > 100 | > 100 | > 100 | > 100 | > 100 | > 100 | > 100 |
| CC(=O)N1C(C(=O)NN2CCOCC2)CSC1c1ccccc1 (stereo not given) | > 100 | > 100 | > 100 | > 100 | > 100 | > 100 | > 100 | > 100 | > 100 | > 100 |
| c1ccc(-c2cnc(SC(c3ccccc3)c3ccccc3)[nH]2)cc1 | > 100 | > 100 | > 100 | > 100 | 54.6 | > 100 | > 100 | 27 | > 100 | > 100 |
